Like-named read-outs stand apart in the source and are kept apart here.
How the values were obtained:
[1] = Stability in mouse hepatocytes; assay type: in vitro ADME
[2] = Stability in human plasma; assay type: in vitro ADME; conditions: 37° C.; for t1/2, Human Plasma, Diastereoisomer B: 3 μM
Method in brief: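 Test compound at 3 μM (0.1% DMSO) was incubated in mouse or human plasma at 37 °C and sampled in duplicate at 0, 10, 20, 30, 40 and 60 min. Reactions were stopped with acetonitrile/formic acid containing internal standard. Remaining parent was measured by UPLC-MS/MS without a calibration curve.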

physchem = conditions: buffer, phosphate buffered saline, 10 mM phosphate buffer pH 7.5, 37° C.
Protocol: (§1) To measure chemical stability in aqueous solution, the half-life (t1/2), or time needed for the concentration to decrease by half, was determined for select compounds in phosphate buffered saline solution. Compounds were dissolved in a solution containing 10 mM phosphate buffer (pH 7.5) and 5% of D2O to a final concentration of −1 mM. All spectra were obtained at 37° C. on a Bruker Avance 600 NMR spectrometer equipped with an inverse broad-band probe with z-gradients. Data were obtained every 15 min for a total time period of 4 h or longer, according to the observed stability. ^31P NMR was performed at 242.55 MHz, with gated decoupling of the protons. An observation frequency range of 14619.9 Hz and 32 K complex data points were used for acquisition. A pulse angle of 90° and a 4-sec pulse cycle were utilized. Thirty-two accumulations were obtained before Fourier transformation of the free induction decay. ^1H NMR spectra were acquired using the 1DNOESY experiment with water presaturation for better solvent suppression. An observation frequency range of 12019.23 Hz, a 10-sec pulse cycle, and 32 K complex data points were used for acquisition. Sixty-four scans were added prior to Fourier transformation. Integral data were obtained using the TopSpin software.
(§2) Stability was determined based on analysis of disappearance of the compounds as a function of incubation time. Quantification of test compounds was measured as a peak area relative to an internal standard. The elimination constant, k, was calculated by plotting mean disappearance values on a semi-logarithmic scale and fitting with a best fit linear regression. The half-life (t1/2) expressed in hours was derived using Equation 1: t1/2=ln2/(−k). Equation 1:

[3] = Permeability in porcine brain endothelial cell blood-brain barrier model; assay type: in vitro ADME; conditions: pig (endothelial cells), co-cultured with rat astrocytes, pH 7.4, PBECs/As blood-brain barrier model, luminal to basal
Method in brief: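 Co-culture of primary porcine brain endothelial cells on Transwell inserts over primary rat astrocytes, with TEER >500 Ω/cm^2 and FITC-dextran integrity control. Compound added apically in HBSS/20 mM Hepes pH 7.4/0.1% BSA and basal amount measured usually after 60 min, by LC-MS/MS, fluorescence or scintillation. Papp in cm/s, corrected for cell-free filter.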

[4] = Stability in human hepatocytes; assay type: in vitro ADME; conditions: for half-life: 5 μM, 1 million cells/ml, 37° C., human hepatocytes; for half-life at 5 µM: t1/2, Human Hepatocytes
[5] = Chemical stability in aqueous solution (phosphate buffered saline, NMR)
Protocol: as §1, §2

[6] = Diastereoisomer A (upfield shift in 31P NMR), 5 μM, 1 million cells/ml, 37° C., mouse hepatocytes, read-out: t1/2, Mouse Hepatocytes, Diastereoisomer A (converted)
[7] = Diastereoisomer B, 5 μM, 1 million cells/ml, 37° C., mouse hepatocytes, read-out: t1/2, Mouse Hepatocytes, Diastereoisomer B (converted)
[8] = Diastereoisomer A (upfield shift in 31P NMR), read-out: t1/2, Human Plasma, Diastereoisomer A (converted)
[9] = pH 7.5, t1/2 (h) Diastereoisomer A, Diastereoisomer A = upfield shift in the 31P NMR
[10] = pH 7.5, t1/2 (h) Diastereoisomer B, Diastereoisomer B
[11] = Diastereoisomer A, read-out: Papp Diastereoisomer A
[12] = Diastereoisomer B, read-out: Papp Diastereoisomer B
[13] = Diastereoisomer A (upfield shift in 31P NMR), read-out: t1/2, Human Hepatocytes, Diastereoisomer A (converted)
[14] = Diastereoisomer B, read-out: t1/2, Human Hepatocytes, Diastereoisomer B (converted)
[15] = t1/2, Mouse Hepatocytes, Diastereoisomer A
[16] = human, plasma, Diastereoisomer A (upfield shift in 31P NMR), read-out: t1/2, Human Plasma, Diastereoisomer A (converted)

half-life at 5 µM [1, 15] [h] | half-life at 5 µM ([1]; t1/2, Mouse Hepatocytes, Diastereoisomer B) [h] | half-life at 1 mM ([5]; pH 7.5, t1/2 (h) Diastereoisomer A, 10 mM phosphate buffer pH 7.5, 37° C., Diastereoisomer A = upfield shift in the 31P NMR) [h] | half-life at 1 mM ([5]; pH 7.5, t1/2 (h) Diastereoisomer B, 10 mM phosphate buffer pH 7.5, 37° C., Diastereoisomer B) [h] | half-life at 3 µM [2, 16] [h] | half-life at 3 µM ([2]; human, plasma, Diastereoisomer B, read-out: t1/2, Human Plasma, Diastereoisomer B (converted)) [h] | half-life at 5 µM ([4]; Diastereoisomer A) [h] | half-life at 5 µM ([4]; Diastereoisomer B) [h] | half-life at 1 mM ([5]; pH 7.5, t1/2 (h), pH 7.5, 37° C., compound not chiral at phosphorous, one value spanning both columns) [h] | SMILES | half-life at 5 µM [1, 6] [h] | half-life at 5 µM [1, 7] [h] | half-life at 3 µM [2, 8] [h] | t1/2, Human Plasma, Diastereoisomer B ([2]; Diastereoisomer B) [h] | half-life (physchem; [9]) [h] | half-life (physchem; [10]) [h] | Papp A→B at 60 min [3, 11] [×10⁻⁶ cm/s] | Papp A→B at 60 min [3, 12] [×10⁻⁶ cm/s] | half-life [4, 13] [h] | half-life [4, 14] [h]
– | – | – | – | – | – | – | – | – | COC(=O)CCNC(=O)[C@@H]1OP(=O)(N[C@@H](C)C(=O)OC)OCC1(C)C (stereo partly drawn) [compound 5, methyl 3-((4R)-2-(((S)-1-methoxy-1-oxopropan-2-yl)amino)-5,5-dimethyl-2-oxido-1,3,2-dioxaphosphinane-4-carboxamido)propanoate] | 0.38 | 0.3 | > 1 | >1 | 40 | 40 | 6.27 | 5.06 | 2.65 | 1
– | – | – | – | – | – | – | – | – | COC(=O)CCNC(=O)[C@@H]1OP(=O)(N[C@H](C)C(=O)OC)OCC1(C)C (stereo partly drawn) [compound 16, methyl 3-((4R)-2-(((R)-1-methoxy-1-oxopropan-2-yl)amino)-5,5-dimethyl-2-oxido-1,3,2-dioxaphosphinane-4-carboxamido)propanoate] | 0.72 | 0.26 | > 1 | >1 | > 80 | > 80 | 3.33 | 4.35 | > 4 | 1.34
< 0.25 | < 0.25 | > 80 | > 80 | 0.74 | > 1 | 2.36 | 1.09 | – | COC(=O)[C@H](C)NP1(=O)OCC(C)(C)[C@H](C(=O)NCCC(=O)OCc2ccncc2)O1 (stereo partly drawn) [compound 20, (2S)-methyl 2-(((4R)-5,5-dimethyl-2-oxido-4-((3-oxo-3-(pyridin-4-ylmethoxy)propyl)carbamoyl)-1,3,2-dioxaphosphinan-2-yl)amino)propanoate] | – | – | – | – | – | – | 4.79 | 3.38 | – | –
0.25 | – | – | – | 0.83 | – | 0.25 | – | > 100 | CC1(C)COP(=O)(O)O[C@H]1C(=O)NCCC(=O)O [compound 108, 3-((4R)-2-hydroxy-5,5-dimethyl-2-oxido-1,3,2-dioxaphosphinane-4-carboxamido)propanoic acid] | – | – | – | – | – | – | 0.58 | – | – | –
– | – | – | – | – | – | – | – | – | COC(=O)CCNC(=O)[C@@H]1OP(=O)(NCCN2CCCC2)OCC1(C)C (stereo partly drawn) [compound 109, methyl 3-((4R)-5,5-dimethyl-2-oxido-2-((2-(pyrrolidin-1-yl)ethyl)amino)-1,3,2-dioxaphosphinane-4-carboxamido)propanoate] | 3.39 | – | > 1 | – | 48 | 15.4 | 5.26 | – | > 4 | –
